For series [1], the target named is T1, CFTR (Homo sapiens, UniProt P13569). The series can be described thus: Membrane Potential Dye, Enteroid Assay A. It counts as cell-based. Particulars: for EC50: read-out: Ent. A EC50. The procedure, abridged: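 Primary human intestinal enteroid cells exposed to compound for 18–24 hours at 37 °C, then loaded 25 min with methyl oxonol membrane potential dye plus CaCC inhibitors. Chloride transport triggered in chloride-free buffer with 10 μM forskolin, 100 μM IBMX and 300 nM Compound III, fluorescence read 15 min; % Activity relative to a triple-combination corrector/potentiator control.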

The conditions of series [2]: amide bond, 13-membered ring, DMF.
Series [3] has as its target T1, CFTR. Description: Membrane Potential Dye, Enteroid Assay B. It counts as cell-based. In short, it runs like this:
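Human intestinal enteroid cells exposed to compound 18-24 h at 37 °C, then loaded with methyl oxonol membrane-potential dye plus CaCC blockers. Chloride transport triggered in chloride-free buffer with 10 μM forskolin, 100 μM IBMX, 300 nM Compound III; fluorescence read 15 min, expressed as % of triple-corrector/potentiator combination control.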

Where [4] appears, read: Table 10, read-out: Ent. B EC50.

The structures appear in SMILES notation. Read-outs that look alike come from different tables or passages of the source.

Consider twelve compounds from patent US20230382925A1, “MODULATORS OF CYSTIC FIBROSIS TRANSMEMBRANE CONDUCTANCE REGULATOR” (VERTEX PHARMACEUTICALS INCORPORATED, priority 2020, published 2023).

What is called EC50 is the concentration that produces a half-maximal response.

T1 sequence (P13569 with tags, fused parts or gaps DEL508-508): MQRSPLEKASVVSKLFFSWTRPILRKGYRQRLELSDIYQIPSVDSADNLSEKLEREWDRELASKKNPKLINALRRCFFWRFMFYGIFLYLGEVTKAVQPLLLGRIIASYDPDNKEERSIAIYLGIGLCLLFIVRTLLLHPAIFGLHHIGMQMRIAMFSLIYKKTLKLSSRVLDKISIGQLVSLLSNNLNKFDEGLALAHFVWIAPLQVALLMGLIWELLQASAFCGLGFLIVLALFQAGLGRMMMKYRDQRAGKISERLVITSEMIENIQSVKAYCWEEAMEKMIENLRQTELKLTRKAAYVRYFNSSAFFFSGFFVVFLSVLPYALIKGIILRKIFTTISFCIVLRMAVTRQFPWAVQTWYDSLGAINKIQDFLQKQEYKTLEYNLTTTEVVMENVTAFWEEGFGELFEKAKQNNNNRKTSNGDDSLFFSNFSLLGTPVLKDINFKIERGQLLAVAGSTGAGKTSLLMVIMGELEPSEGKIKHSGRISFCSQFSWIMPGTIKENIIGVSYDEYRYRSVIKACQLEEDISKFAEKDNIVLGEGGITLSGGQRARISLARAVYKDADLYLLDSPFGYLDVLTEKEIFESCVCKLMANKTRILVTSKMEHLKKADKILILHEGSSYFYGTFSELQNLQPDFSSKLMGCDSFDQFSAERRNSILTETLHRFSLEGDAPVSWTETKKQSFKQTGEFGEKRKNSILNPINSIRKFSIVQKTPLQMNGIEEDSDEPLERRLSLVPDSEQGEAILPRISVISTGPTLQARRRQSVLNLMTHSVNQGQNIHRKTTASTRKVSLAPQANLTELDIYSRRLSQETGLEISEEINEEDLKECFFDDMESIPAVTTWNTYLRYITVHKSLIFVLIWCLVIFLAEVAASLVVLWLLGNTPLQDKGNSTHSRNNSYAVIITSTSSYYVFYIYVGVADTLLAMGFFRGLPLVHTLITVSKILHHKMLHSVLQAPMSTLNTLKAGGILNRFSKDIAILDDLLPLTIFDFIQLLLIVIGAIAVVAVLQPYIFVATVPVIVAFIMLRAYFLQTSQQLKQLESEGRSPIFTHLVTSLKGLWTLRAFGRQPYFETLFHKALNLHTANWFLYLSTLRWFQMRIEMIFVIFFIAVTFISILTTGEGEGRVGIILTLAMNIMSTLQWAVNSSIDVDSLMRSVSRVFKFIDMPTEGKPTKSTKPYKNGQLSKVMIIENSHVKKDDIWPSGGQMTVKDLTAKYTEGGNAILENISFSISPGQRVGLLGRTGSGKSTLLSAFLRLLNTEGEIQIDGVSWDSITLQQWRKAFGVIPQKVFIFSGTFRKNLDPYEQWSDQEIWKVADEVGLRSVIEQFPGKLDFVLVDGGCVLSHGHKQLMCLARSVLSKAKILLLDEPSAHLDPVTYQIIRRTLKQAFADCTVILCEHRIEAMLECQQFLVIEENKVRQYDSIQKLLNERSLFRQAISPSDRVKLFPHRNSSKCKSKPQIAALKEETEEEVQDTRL

Take `Cc1cccc(C)c1-c1cc2nc(n1)NS(=O)(=O)c1cccc(c1)C(=O)N(C1CC3(CC3)C1)[C@H](C)CO2` [Compound 126, (11R)-6-(2,6-dimethylphenyl)-11-methyl-12-{spiro[2.3]hexan-5-yl}-9-oxa-2λ^6-thia-3,5,12,19-tetraazatricyclo[12.3.1.14,8]nonadeca-1(17),4(19),5,7,14(18),15-hexaene-2,2,13-trione]: on CFTR [1], the “Ent. A Max Activity (%)” value was “++ (++ is 30-60%)” and the EC50 fell in the range of 1000 to 3000 nM. The compound also displayed a ring closure, yield after HPLC in series [2] (from Cc1cccc(C)c1-c1cc(OC[C@@H](C)NC2CC3(CC3)C2)nc(NS(=O)(=O)c2cccc(C(=O)O)c2)n1, HATU/TEA, 20.9 mM, 96.0 h) of 47%.
Consider `Cc1cccc(C)c1-c1cc2nc(n1)NS(=O)(=O)c1cccc(c1)C(=O)N(C1CC(C)(C)C1)[C@H](CC(C)C)CO2` [Compound 28, (11R)-12-(3,3-Dimethylcyclobutyl)-6-(2,6-dimethylphenyl)-11-isobutyl-2,2-dioxo-9-oxa-2λ^6-thia-3,5,12,19-tetrazatricyclo[12.3.1.14,8]nonadeca-1(18),4(19),5,7,14,16-hexaen-13-one], for which, at CFTR [1], the “Ent. A Max Activity (%)” value is listed as “+++ (+++ is >60%)” and the EC50 was under 1000 nM. For the same compound, the ring closure, yield after HPLC in series [2] (from Cc1cccc(C)c1-c1cc(OC[C@@H](CC(C)C)NC2CC(C)(C)C2)nc(NS(=O)(=O)c2cccc(C(=O)O)c2)n1, HATU/DIEA, 18.9 mM, 25.0 °C, 2.0 h) amounted to 60%.
Turning to `Cc1cccc(C)c1-c1cc2nc(n1)NS(=O)(=O)c1cccc(c1)C(=O)N(C1CC3(CCOCC3)C1)[C@H](CC(C)C)CO2` [Compound 31, (11R)-6-(2,6-Dimethylphenyl)-11-isobutyl-12-(7-oxaspiro[3.5]nonan-2-yl)-2,2-dioxo-9-oxa-2λ^6-thia-3,5,12,19-tetrazatricyclo[12.3.1.14,8]nonadeca-1(18),4(19),5,7,14,16-hexaen-13-one], at CFTR [1], the “Ent. A Max Activity (%)” value is listed as “+++ (+++ is >60%)” and the EC50 is under 1000 nM. The compound also had a ring closure, yield after HPLC in series [2] (from Cc1cccc(C)c1-c1cc(OC[C@@H](CC(C)C)NC2CC3(CCOCC3)C2)nc(NS(=O)(=O)c2cccc(C(=O)O)c2)n1, HATU/DIEA, 25.0 °C, 2.0 h, 2 steps) of 28%.
For the compound `Cc1cccc(C)c1-c1cc2nc(n1)NS(=O)(=O)c1cccc(c1)C(=O)N(C1CC3(CCN(CC(F)(F)F)CC3)C1)[C@H](CC(C)C)CO2` [Compound 18, (11R)-6-(2,6-dimethylphenyl)-11-isobutyl-2,2-dioxo-12-[7-(2,2,2-trifluoroethyl)-7-azaspiro[3.5]nonan-2-yl]-9-oxa-2λ^6-thia-3,5,12,19-tetrazatricyclo[12.3.1.14,8]nonadeca-1(18),4(19),5,7,14,16-hexaen-13-one], the “Ent. B Max Activity (%)” value at CFTR [3] was “+++ (+++ is >60%)”. The EC50 on CFTR [3] (read-out: Ent. B EC50) is under 1000 nM. Besides, at CFTR [1], the “Ent. A Max Activity (%)” value is recorded as “+++ (+++ is >60%)” and the 50% effective concentration (EC50) is under 1000 nM. The same compound registered a ring closure, yield after HPLC in series [2] (from Cc1cccc(C)c1-c1cc(OC[C@@H](CC(C)C)NC2CC3(CCN(CC(F)(F)F)CC3)C2)nc(NS(=O)(=O)c2cccc(C(=O)O)c2)n1, HATU/DIEA, 25.0 °C, 2.0 h, 2 steps) of 17%.
`Cc1cccc(C)c1-c1cc2nc(n1)NS(=O)(=O)c1cccc(c1)C(=O)N(C1CC3(CCC3)C1)[C@H](CC(C)C)CO2` [Compound 32, (11R)-6-(2,6-dimethylphenyl)-11-isobutyl-2,2-dioxo-12-spiro[3.3]heptan-2-yl-9-oxa-2λ^6-thia-3,5,12,19-tetrazatricyclo[12.3.1.14,8]nonadeca-1(18),4(19),5,7,14,16-hexaen-13-one]: at CFTR [1], the “Ent. A Max Activity (%)” value was “++ (++ is 30-60%)” and the EC50 is under 1000 nM. Also, the ring closure, yield after HPLC in series [2] (from Cc1cccc(C)c1-c1cc(OC[C@@H](CC(C)C)NC2CC3(CCC3)C2)nc(NS(=O)(=O)c2cccc(C(=O)O)c2)n1, HATU/DIEA, 25.0 °C, 2.0 h, 2 steps) is 44%.
On to `COCCn1cc(N2C(=O)c3cccc(c3)S(=O)(=O)Nc3nc(cc(-c4c(C)cccc4C)n3)OC[C@H]2CCC(C)C)cn1` [Compound 6, (11R)-6-(2,6-Dimethylphenyl)-11-isopentyl-12-[1-(2-methoxyethyl)pyrazol-4-yl]-2,2-dioxo-9-oxa-2λ^6-thia-3,5,12,19-tetrazatricyclo[12.3.1.14,8]nonadeca-1(18),4(19),5,7,14,16-hexaen-13-one], for which the “Ent. B Max Activity (%)” value on CFTR [3] (Table 10) is given as “+++ (+++ is >60%)”. Besides, the concentration giving a half-maximal response (EC50) at CFTR [3] (setting [4]) was under 1000 nM. Further, in series [2] (from COCCn1cc(N[C@H](CCC(C)C)COc2cc(-c3c(C)cccc3C)nc(NS(=O)(=O)c3cccc(C(=O)O)c3)n2)cn1, CDMT/NMM, 48.0 h, 2 steps), the ring closure, yield after HPLC worked out at 16%.
`Cc1cccc(C)c1-c1cc2nc(n1)NS(=O)(=O)c1cc(n(C)n1)C(=O)N(C1CC3(CC3)C1)[C@H](CC(C)C)CO2` [Compound 74, (10R)-15-(2,6-Dimethylphenyl)-10-isobutyl-6-methyl-3,3-dioxo-9-spiro[2.3]hexan-5-yl-12-oxa-3λ^6-thia-2,5,6,9,16,17-hexazatricyclo[11.3.1.14,7]octadeca-1(17),4,7(18),13,15-pentaen-8-one]: on CFTR [3] (Table 9), the “Ent. B Max Activity (%)” value is “+++ (+++ is >60%)”. For the same compound, the EC50 on CFTR [3] (Table 9, read-out: Ent. B EC50) was under 1000 nM. The ring closure, yield after HPLC in series [2] (from Cc1cccc(C)c1-c1cc(OC[C@@H](CC(C)C)NC2CC3(CC3)C2)nc(NS(=O)(=O)c2cc(C(=O)O)n(C)n2)n1, HATU/DIPEA, 4.9 mM, 6.0 h, 2 steps) came to 10%.
With `COCCn1cc(N2C(=O)c3cccc(c3)S(=O)(=O)Nc3nc(cc(-c4c(C)cccc4C)n3)OC[C@H]2CC(C)C)cn1` [Compound 98, (11R)-6-(2,6-Dimethylphenyl)-11-isobutyl-12-[1-(2-methoxyethyl)pyrazol-4-yl]-2,2-dioxo-9-oxa-2λ^6-thia-3,5,12,19-tetrazatricyclo[12.3.1.14,8]nonadeca-1(18),4(19),5,7,14,16-hexaen-13-one], at CFTR [3] (Table 10), the “Ent. B Max Activity (%)” value was “+++ (+++ is >60%)”. For the same compound, the half-maximal effective concentration (EC50) on CFTR [3] (setting [4]) is under 1000 nM. The same compound displayed a ring closure, yield after HPLC in series [2] (from COCCn1cc(N[C@@H](COc2cc(-c3c(C)cccc3C)nc(NS(=O)(=O)c3cccc(C(=O)O)c3)n2)CC(C)C)cn1, CDMT/NMM, 48.0 h, 2 steps) of 9%.
Regarding `Cc1cccc(C)c1-c1cc2nc(n1)NS(=O)(=O)c1cccc(c1)C(=O)N(C1CC3(CC3)C1)[C@H](CC1CCCCC1)[C@@H](C1CC1)O2` [Compound 1, (10R,11R)-11-(Cyclohexylmethyl)-10-cyclopropyl-6-(2,6-dimethylphenyl)-2,2-dioxo-12-spiro[2.3]hexan-5-yl-9-oxa-2λ^6-thia-3,5,12,19-tetrazatricyclo[12.3.1.14,8]nonadeca-1(18),4(19),5,7,14,16-hexaen-13-one], at CFTR [1], the “Ent. A Max Activity (%)” value is “+++ (+++ is >60%)” and the EC50 was under 1000 nM. The ring closure, yield after HPLC in series [2] (from Cc1cccc(C)c1-c1cc(O[C@H](C2CC2)[C@@H](CC2CCCCC2)NC2CC3(CC3)C2)nc(NS(=O)(=O)c2cccc(C(=O)O)c2)n1, COMU/TEA, 10.8 mM, 25.0 °C, 1.0 h) was determined as 31%.
Take `Cc1cccc(C)c1-c1cc2cc(n1)NS(=O)(=O)c1cccc(n1)C(=O)N(C1CC3(CC3)C1)[C@H](CC(C)C)CO2` [Compound 197, (11R)-6-(2,6-Dimethylphenyl)-11-isobutyl-2,2-dioxo-12-spiro[2.3]hexan-5-yl-9-oxa-2λ^6-thia-3,5,12,18-tetrazatricyclo[12.3.1.14,8]nonadeca-1(18),4(19),5,7,14,16-hexaen-13-one]: at CFTR [3], the “Ent. B Max Activity (%)” value is given as “+++ (+++ is >60%)”. The EC50 at CFTR [3] (read-out: Ent. B EC50) is under 1000 nM. Moreover, the ring closure, yield after HPLC in series [2] (from Cc1cccc(C)c1-c1cc(OC[C@@H](CC(C)C)NC2CC3(CC3)C2)cc(NS(=O)(=O)c2cccc(C(=O)O)n2)n1, HATU/DIEA, 27.1 mM, 2.0 h) is 59%.
Regarding `Cc1cccc(C)c1-c1cc2nc(n1)NS(=O)(=O)c1cccc(c1)C(=O)N(c1cnn(C(C)(C)C)c1)[C@H](CC(C)(C)C)CO2` [Compound 184, (11R)-12-(1-tert-Butylpyrazol-4-yl)-6-(2,6-dimethylphenyl)-11-(2,2-dimethylpropyl)-2,2-dioxo-9-oxa-2λ^6-thia-3,5,12,19-tetrazatricyclo[12.3.1.14,8]nonadeca-1(18),4(19),5,7,14,16-hexaen-13-one], the “Ent. B Max Activity (%)” value on CFTR [3] (Table 10) is “+++ (+++ is >60%)”. In addition, the concentration for a half-maximal effect (EC50) at CFTR [3] (setting [4]) was under 1000 nM. For the same compound, the ring closure, yield after HPLC in series [2] (from Cc1cccc(C)c1-c1cc(OC[C@@H](CC(C)(C)C)Nc2cnn(C(C)(C)C)c2)nc(NS(=O)(=O)c2cccc(C(=O)O)c2)n1, CDMT/NMM, 24.9 mM, 48.0 h, 2 steps) came to 7%.
For the compound `Cc1cccc(C)c1-c1cc2nc(n1)NS(=O)(=O)c1cccc(c1)C(=O)N(C1CC3(CC3)C1)[C@H](CCC(C)C)CO2` [Compound 3, (11R)-6-(2,6-Dimethylphenyl)-11-isopentyl-2,2-dioxo-12-spiro[2.3]hexan-5-yl-9-oxa-2λ^6-thia-3,5,12,19-tetrazatricyclo[12.3.1.14,8]nonadeca-1(18),4(19),5,7,14,16-hexaen-13-one], on CFTR [1], the “Ent. A Max Activity (%)” value is reported as “++ (++ is 30-60%)” and the 50% effective concentration (EC50) was under 1000 nM. The compound also came in with a ring closure, yield after HPLC in series [2] (from Cc1cccc(C)c1-c1cc(OC[C@@H](CCC(C)C)NC2CC3(CC3)C2)nc(NS(=O)(=O)c2cccc(C(=O)O)c2)n1, HATU/DIEA, 25.0 °C, 3.0 h, 2 steps) of 8%.
